Structures can show the parent of a compound that is named as a salt. Where two headings read alike, the source gives them in different places.

Here are results for 14 compounds from patent US7071225B2, “Arylaminopropane analogues and their use for the treatment of glaucoma” (Alcon, Inc., priority 2001, dated 2006).

For one experiment, the target named is T1, 5-HT2a (Rattus norvegicus, UniProt P14842).
T1 construct: endogenous in cells; host or cells: A7r5 rat vascular smooth muscle cells
The experiment in a line: 5-HT2 functional assay: [Ca2+]i mobilization (FLIPR) in A7r5 cells. In kind it is cell-based. Conditions: for Emax: read-out: FLIPR 5-HT2a % Emax A7r5 Ca + 2. The protocol: The receptor-mediated mobilization on intracellular calcium ([Ca^2+]i) was studied using the Fluorescence Imaging Plate Reader (FLIPR) instrument. Rat vascular smooth muscle cells, A7r5, were grown in a normal media of DMEM/10% FBS and 10 μg/mL gentamycin. Confluent cell monolayers were trypsinized, pelleted, and re-suspended in normal media. Cells were seeded in a 50 μL volume at a density of 20,000 cells/well in a black wall, 96-well tissue culture plate and grown for 2 days.
On the day of the experiment, one vial of FLIPR Calcium Assay Kit dye was re-suspended in 50 mL of a FLIPR buffer consisting of Hank's Balanced Salt Solution (HBSS), 20 mM HEPES, and 2.5 mM probenecid, pH 7.4. Cells were loaded with the calcium-sensitive dye by addition of an equal volume ([…]) to each well of the 96-well plate and incubated with dye for 1 h at 23° C.
Typically, test compounds were stored at 25 μM in 50% DMSO/50% Ethanol solvent. Compounds were diluted 1:50 in 20% DMSO/20% Ethanol. For “hit” screening, compounds were further diluted 1:10 in FLIPR buffer and tested at a final concentration of 10 μM. For dose-response experiments, compounds were diluted 1:50 in FLIPR buffer and serially diluted 1:10 to give a 5- or 8-point dose-response curve.
The compound plate and cell plate were placed in the FLIPR instrument. At the beginning of an experimental run, a signal test was performed to check the basal fluorescence signal from the dye-loaded cells and the uniformity of the signal across the plate. The basal fluorescence was adjusted between 8000–12000 counts by modifying the exposure time, the camera F-stop, or the laser power. Instrument settings for a typical assay were the following: laser power 0.3–0.6 W, camera F-stop F/2, and exposure time 0.4 sec. An aliquot (25 μL) of the test compound was added to the existing 100 μL dye-loaded cells at a dispensing speed of 50 μL/sec. Fluorescence data were collected in real-time at 1.0 sec intervals for the first 60 secs and at 6.0 sec intervals for an additional 120 secs. Responses were measured as peak fluorescence intensity minus basal and where appropriate were expressed as a percentage of a maximum 5-HT-induced response.

In experiment [1] the target is T2, 5-HT2 receptor (Rattus norvegicus, UniProt P14842). The experiment in a line: 5-HT2 functional assay: phosphoinositide (PI) turnover in A7r5 cells. Set-up: [^3H]myo-inositol-labeled A7r5 rat vascular smooth muscle cells; endogenous in cells; host or cells: A7r5 rat vascular smooth muscle cells. The format is cell-based. The protocol: The relative agonist activity of serotonergic compounds at the 5-HT2 receptor can be determined in vitro using the ability of the compounds to stimulate the production of [^3H]inositol phosphates in [^3H]myo-inositol-labeled A7r5 rat vascular smooth muscle cells by their ability to activate the enzyme phospholipase C. These cells are grown in culture plates, maintained in a humidified atmosphere of 5% CO2 and 95% air and fed semi-weekly with Dulbecco's modified Eagle medium (DMEM) containing 4.5 g/L glucose and supplemented with 2 mM glutamine, 10 μg/ml gentamicin, and 10% fetal bovine serum. For the purpose of conducting the phosphoinositide (PI) turnover experiments, the A7r5 cells are cultured in 24-well plates as previously [J. Pharmacol. Expt. Ther. 286, 411 (1998)]. Confluent cells are exposed for 24–30 hrs to 1.5 μCi [^3H]-myo-inositol (18.3 Ci/mmol) in 0.5 ml of serum-free medium. Cells are then rinsed once with DMEM/F-12 containing 10 mM LiCl prior to incubation with the test agent (or solvent as the control) in 1.0 mL of the same medium for 1 hr at 37° C., after which the medium is aspirated and 1 ml of cold 0.1 M formic acid added to stop the reaction. The chromatographic separation of [^3H]-inositol phosphates ([^3H]-IPs) on an AG-1-X8 column is performed as previously described [J. Pharmacol. Expt. Ther. 286, 411 (1998)] with sequential washes with H2O and 50 mM ammonium formate, followed by elution of the total [^3H]-IPs fraction with 1.2 M ammonium formate containing 0.1 M formic acid. The eluate (4 mL) is collected, mixed with 15 ml scintillation fluid, and the total [^3H]-IPs determined by scintillation counting on a beta-counter. Concentration-response data are analyzed by the sigmoidal fit function of the Origin Scientific Graphics software (Microcal Software, Northampton, Mass.) to determine agonist potency (EC50 value) and efficacy (Emax).

Experiment [2] concerns the target T2, 5-HT2 receptor. The experiment can be described thus: 5-HT2 receptor binding assay ([125I]DOI competition, cerebral cortex homogenates). Conditions: 5-point, read-out: Rat Cerebral Cortex 5-HT2 IC50 5-pt (DOI). The protocol: The assay mixture is incubated for 1 hour at 23° C. in polypropylene tubes and the assays terminated by rapid vacuum filtration over Whatman GF/B glass fiber filters previously soaked in 0.3% polyethyleneimine using ice-cold buffer. Test compounds (at different concentrations) are substituted for methiothepin. Filter-bound radioactivity is determined by scintillation spectrometry on a beta counter. The data are analyzed using a non-linear, iterative curve-fitting computer program [Trends Pharmacol. Sci., 16, 413 (1995)] to determine the compound affinity parameter.

For experiment [3] the following is noted: rabbits; Osborne et al. 1996; cited from earlier work.
For experiment [4] the following is noted: monkey; Wang et al. 1997/1998; attributed to α1A receptor activity; cited from earlier work.
[5] abbreviates: A7r5 cells, percentage of maximum 5-HT-induced response.
[6] abbreviates: A7r5 cells, Ca2+ mobilization, read-out: FLIPR 5-HT2a EC50.

T2 sequence (P14842 whole entry): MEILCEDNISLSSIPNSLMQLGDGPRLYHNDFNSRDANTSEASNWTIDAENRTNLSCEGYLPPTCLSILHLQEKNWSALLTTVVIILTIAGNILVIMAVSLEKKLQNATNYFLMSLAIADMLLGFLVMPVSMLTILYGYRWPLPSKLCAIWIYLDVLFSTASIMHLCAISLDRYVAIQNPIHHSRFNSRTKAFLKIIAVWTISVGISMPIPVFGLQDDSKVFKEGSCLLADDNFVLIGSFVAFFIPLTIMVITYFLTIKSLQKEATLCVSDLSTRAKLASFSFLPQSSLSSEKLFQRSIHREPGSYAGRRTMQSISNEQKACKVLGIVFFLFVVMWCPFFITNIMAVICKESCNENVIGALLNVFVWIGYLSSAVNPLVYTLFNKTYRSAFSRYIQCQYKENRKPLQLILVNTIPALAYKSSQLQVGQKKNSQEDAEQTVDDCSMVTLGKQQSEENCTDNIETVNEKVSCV
T1 sequence (P14842 whole entry): as above

Regarding `COc1ccc(OC)c2cc(CC(C)N)ccc12` (centres unmarked) [Example 8, 2-(5,8-dimethoxy-naphthalen-2-yl)-1-methylethylamine hydrochloride], the Emax on 5-HT2a (setting [5]) stood at 2.6%.
In the case of `COc1cc([C@H](O)[C@@H](C)N)c(OC)c2ccccc12` [Example 3, (1S,2R)-2-Amino-1-(1,4-dimethoxy-naphthalen-2-yl)-propan-1-ol hydrochloride], the EC50 on 5-HT2a (setting [6]) was 1410 nM. For the same compound, on 5-HT2a (setting [5]), the Emax was 28.4%.
Consider `COc1cc(CC(C)N)c(OC)c2ccccc12` (centres unmarked) [Example 1, 2-(1,4-Dimethoxy-naphthalen-2-yl)-1-methylethylamine hydrochloride], for which the EC50 on 5-HT2a came to 188 nM; at 5-HT2 receptor [1], 238 nM. For the same compound, the Emax at 5-HT2a (setting [5]) turned out to be 46.5%; at 5-HT2 receptor [1] (A7R5; read-out: Efficacy (Emax, %)), 118%.
Consider `COc1cc(C(=O)C(C)N)c(OC)c2ccccc12` (centres unmarked) [Example 9, 2-amino-1-(1,4-dimethoxy-naphthalen-2-yl)-propan-1-one hydrochloride], for which the Emax on 5-HT2a (setting [5]) is 21.8%.
In turn, `COc1c(CC(C)N)cc(Br)c2ccccc12` (centres unmarked) [Example 5, 2-(4-Bromo-1-methoxy-naphthalen-2-yl)-1-methylethylamine hydrochloride] yielded an EC50 at 5-HT2a of 1120 nM. In addition, the Emax on 5-HT2a (setting [5]) worked out at 38.9%.
The matching figures for `COc1c(CC(C)N)ccc2ccccc12` (centres unmarked) [Example 4, 2-(1-Methoxy-naphthalen-2-yl)-1-methylethylamine hydrochloride]: 580 nM and 28.9%.
Compound `COc1cc(CC(C)N)c(Br)c2ccccc12` (centres unmarked) [Example 12, 2-(1-Bromo-4-methoxy-naphthalen-2-yl)-1-methylethylamine hydrochloride] registered an EC50 at 5-HT2a of 911 nM. The Emax at 5-HT2a (setting [5]) is 37.4%.
The matching figures for `COc1cc(CC(C)N)cc2ccccc12` (centres unmarked) [Example 11, 2-(4-methoxy-naphthalen-2-yl)-1-methylethylamine hydrochloride]: 612 nM and 46.4%.
For the compound “2-amino-1-(3,8-dimethoxy-naphthalen-2-yl)-propan-1-ol hydrochloride [Example 6]”, the IC50 at 5-HT2 receptor [2] came out at 4.92 nM. Also, the “FLIPR 5-HT2a % Emax A7r5 Ca + 2” value on 5-HT2a (setting [5]) is reported as 17.8%.
Regarding `COc1cc(C(O)C(C)N)c(OC)c2ccccc12` (centres unmarked) [Example 2, 2-Amino-1-(1,4-dimethoxy-naphthalen-2-yl)-propan-1-ol hydrochloride], the EC50 on 5-HT2a (setting [6]) was determined as 1490 nM; on 5-HT2 receptor [1], 6810 nM. The Emax on 5-HT2a (setting [5]) worked out at 26.9%; on 5-HT2 receptor [1] (A7R5, read-out: Efficacy (Emax, %)) it was 113%.
For `CC(N)Cc1ccc2ccccc2c1` (centres unmarked) [Example 10, 2-(naphthalen-2-yl)-1-methylethylamine hydrochloride], the Emax at 5-HT2a (setting [5]) amounted to 20.4%.
As to `CCCN(CCC)C1CCc2cccc(O)c2C1` (centres unmarked) [Example 8-OH-DPAT, 8-hydroxydipropylaminotetralin], the “effect on IOP” value in experiment [3] was “reduces IOP”.
In the case of `CC(N)Cc1ccc2ccccc2c1O` (centres unmarked) [Example 7, 2-(1-hydroxy-naphthalen-2-yl)-1-methylethylamine hydrochloride], the Emax on 5-HT2a (setting [5]) came out at 17.3%.
`COc1ccccc1N1CCN(CCCNc2c(C)c(=O)n(C)c(=O)n2C)CC1` [5-methylurapidil]: the “effect on IOP” value in experiment [4] is given as “lowers IOP”.

The term Emax denotes the size of the effect at its maximum, as opposed to the concentration needed. As a reminder, the EC50 is the concentration needed to bring the measured effect to its halfway point. In general, IC50 refers to the midpoint of a concentration-inhibition curve.
